{
  "source": "paper PMC10761660",
  "about": "“Preclinical evaluation of an ^18F-labeled N^ε-acryloyllysine piperazide for covalent targeting of transglutaminase 2” (EJNMMI Radiopharmacy and Chemistry, 2024)",
  "key": {"Liver microsome assay [1]": {"assay": "Liver microsome assay", "format": "in vitro ADME, murine", "details": "for CLint scaled: read-out: predicted intrinsic clearance (pred. CLint); for half-life: t1/2 approach (at 3-4 µM), 1 mg/mL MLM, 2 mM NADPH", "method": "Microsome experiments with [^18F]7b in the presence of NADPH were performed according to the procedure recently described by us with slight modifications (Lemm et al. [2022]). […] [^18F]7b dissolved in 0.5% ethanol/PBS (100 µL; 0.2% ethanol final, e.g. 108 MBq/mL or 4.1 µM final) was mixed with PBS (112.5 µL) and murine liver microsomes (MLM, 12.5 µL of 20 mg/mL stock; 1 mg/mL final; Gibco™ Cat. No. MSMCPL, Lot. No. MS053-A) in a 1.5 mL Eppendorf tube and the mixture was warmed for 5 min at 37 °C. Subsequently, NADPH (25 µL of freshly prepared 20 mM solution in PBS, 2 mM final) was added and the mixture was incubated at 37 °C. As a control incubation, the NADPH solution was replaced by PBS. At distinct time points (5, 10, 15, 30, and 60 min), an aliquot (40 µL) was withdrawn and added to ice-cold CH3CN (160 µL). The mixture was vortexed for 30 s, stored on ice for 4 min and centrifuged (5 min at 16,100 × g). The resulting supernatant was used for radio-HPLC and radio-TLC analyses. For radio-HPLC, the Shimadzu Nexera X2 UHPLC system described above including the conditions for analysis was used. Radio-TLC was carried out on reversed-phase TLC plates (ALUGRAM RP-18W/UV254 from Macherey–Nagel, Düren, Germany) with a mobile phase of 40% CH3CN in water containing 0.1% trifluoroacetic acid. Visualization of radioactive spots and subsequent analysis was conducted as described above.\nTestosterone (40 µM final) was used as positive control for the activity of the MLM and was separately treated and analyzed after incubation times of 5, 10, 15, 30, and 60 min as described above (0% ethanol final; HPLC gradient profile: 45% eluent B for 10 min followed by washing of the column with 45% to 95% eluent B in 1 min, 95% eluent B for 5 min, 95% to 45% eluent B in 1 min, 45% eluent B for 8 min; total time of 25 min).\nFor that, solutions of [^18F]7b in 0.5% ethanol/PBS (10 µL; 0.1% ethanol final, 17 MBq/mL or 1.14 µM final) were mixed with the respective tenfold concentrated solutions of 7b dissolved in 10% DMSO/PBS (5 µL, 1% DMSO final and 5/10/20/40/80 µM of 7b final), PBS (27.5 µL) and murine liver microsomes (2.5 µL of 20 mg/mL stock) in a 1.5 mL Eppendorf tube and the mixture was warmed for 5 min at 37 °C. Subsequently, NADPH (5 µL of freshly prepared 20 mM solution in PBS, 2 mM final) was added and the mixture was incubated at 37 °C. At distinct time points (5, 10, 15, 20, and 30 min), an aliquot (5 µL) was withdrawn and added to ice-cold CH3CN (40 µL). The subsequent steps were performed as described above including analysis by radio-TLC.\nFor the t1/2 approach at n.c.a. level, the obtained fractions of intact [^18F]7b (by radio-HPLC or radio-TLC analysis) were plotted against the time. Nonlinear regression was performed by one-phase decay (equation 1) as implemented in GraphPad Prism (GraphPad Prism 9.5.1.733), which provided the t1/2 values. The fraction at X = 0 min, Y0, was constrained to 1.0.1 Y0=Y0-Plateau×e^-k×X+Plateau\nSubsequently, the intrinsic clearance, CLint (mL*min^−1*kg^−1), was calculated using equation 2 (Obach et al. [1997]; Schneider et al. [2019])2 CLint=ln2/t1/2min×fuinc×1/MLM(mg/mL)×microsomalprotein/liverweightmg/g×liverweight/bodyweightg/kg with the scaling factors of 60.1 mg/g (microsomal protein/liver weight for rats as no value for mice could be found) (Carlile et al. [1997]) and 87.5 g/kg (liver weight/body weight for mice) (Davies and Morris [1993]). The concentration of the MLMs was 1 mg/mL.\nFor the Vmax/Km approach, the obtained fractions of intact [^18F]7b (by radio-TLC analysis) were plotted against the time (fraction plot). The concentration plot was obtained by transformation of the fractions into concentrations of 7b by taking the experimentally determined molar activity of [^18F]7b into account (i.e. final concentration of 1.14, 6.16, 11.14, 21.14, 41.14, and 81.14 µM for 7b in the performed experiments). Both plots were analyzed by nonlinear regression according to one-phase decay (equation 1). […]"}, "[2]": {"tested_on": "MeWo tumor xenograft (TGase 2 −)", "assay": "Ex vivo biodistribution in tumor-bearing mice (MeWo)", "set-up": "species or system mice (Rj:NMRI-Foxn1 nu/nu)", "method": "For biodistribution studies in tumor-bearing mice, a number of 5 × 10^6 A375-hS100A4 or MeWo cells were resuspended in 100 µL PBS and injected subcutaneously into nude mice (Rj:NMRI-Foxn1 nu/nu). Tumor growth was monitored three times per week using caliper measurements. The injection of [^18F]7b and subsequent steps were performed as described above."}, "[3]": {"assay": "Stability in blood in vitro", "format": "in vitro ADME", "details": "incubation of the radiotracer in blood in vitro"}, "Liver microsome assay [4]": {"assay": "Liver microsome assay", "format": "in vitro ADME, murine", "details": "MLM, without prior oxidation (data not shown)"}, "[5]": {"set-up": "method as in Wodtke et al. [2021]", "details": "in vitro; ref Wodtke et al. [2021]; cited from earlier work"}},
  "note": "Where two headings read alike, the source gives them in different places.",
  "data": [
    {"molecule": "C=CC(=O)NCCCCC(NC(=O)Cc1ccccc1)C(=O)N1CCN(c2cccc([18F])n2)CC1", "note": "(stereo not drawn) [[^18F]7b]", "values": [
      {"measurement": "fraction of intact [^18F]7b", "setting": "Liver microsome assay [1]; MLM, after 30 min in the absence of NADPH, radio-TLC", "result": 0.984},
      {"measurement": "Vmax", "setting": "Liver microsome assay [1]; Michaelis–Menten analysis, degradation by MLM (1 mg/mL)", "result": 0.37, "unit": "µM/min"},
      {"measurement": "Vmax", "setting": "Liver microsome assay [1]; Vmax/Km approach, substrate depletion, radio-TLC", "result": 0.37, "unit": "µM*mL*min^-1*mg^-1"},
      {"measurement": "CLint scaled", "setting": "Liver microsome assay [1]; mouse, liver microsomes, Vmax/Km approach, mice", "result": 1610, "unit": "mL/min/kg"},
      {"measurement": "half-life", "setting": "Liver microsome assay [1]; mouse, liver microsomes, radio-HPLC", "result": 5.7, "unit": "min"},
      {"measurement": "half-life", "setting": "Liver microsome assay [1]; mouse, liver microsomes, radio-TLC", "result": 7.2, "unit": "min"},
      {"measurement": "CLint scaled", "setting": "Liver microsome assay [1]; mouse, liver microsomes, t1/2 approach", "result": 772, "unit": "mL/min/kg"},
      {"measurement": "Km", "setting": "Liver microsome assay [1]; mouse, liver microsomes, Vmax/Km approach, degradation by MLM, radio-TLC", "result": 1.5, "unit": "µM"},
      {"measurement": "tumor/muscle ratio", "setting": "[2]", "result": 1.0},
      {"measurement": "[^18F]7b remaining intact", "setting": "[3]", "result": "≥ 90", "unit": "%"},
      {"measurement": "susceptibility to glucuronidation", "setting": "Liver microsome assay [4]", "result": "not susceptible to glucuronidation"},
      {"measurement": "GSH reactivity", "setting": "[5]", "result": "low"}
    ]}
  ]
}
